Laboratory results published in patent US20230201166A1, “METHODS FOR TREATING CANCER BY INHIBITING CARM1” (DANA-FARBER CANCER INSTITUTE, INC., priority 2020, published 2023).

How the values were obtained:
[1] = test system: B16F10 tumor cells; assay: dsDNA damage, γH2AX immunofluorescence; assay type: cell-based, murine; settings: B16F10 melanoma cells
Procedure: Representative immunofluorescence images (left) of γH2AX antibody labeling (purple); nuclei labeled with DAPI. Quantification of number of γH2AX foci/nucleus (right). Data are shown as mean±SEM, ***p<0.001, by unpaired two-sided Mann-Whitney test. Scale bar—[…].
Cells were grown on glass coverslips, washed with PBS and fixed in 4% paraformaldehyde in PBS for 20 min at room temperature. Cells were permeabilized in 0.2% Triton X-100 for 15 min before blocking for 30 min with 10% serum-containing blocker (ThermoFisher). Coverslips were then incubated with primary antibody overnight […] in a humidified chamber, followed by incubation with a secondary antibody for 1 hour. Primary and secondary antibodies were diluted in blocking buffer, and […]. Coverslips were mounted using Prolong Gold Antifade Mounting Medium with DAPI (ThermoFisher). Imaging was performed using a Hamamatsu ORCA-Flash4.0 V3 Digital CMOS camera and Nikon Ti-E Motorized Microscope 2000U microscope with Plan Apo Lamda 60×/1.40 Oil Ph3 DM objectives. Images were captured with Nikon Elements Acquisition Software. All scoring was performed under blinded conditions. Three independent experiments with three biological replicates per group were performed.

[2] = test system: CARM1 activity in tumor cells; assay: CARM1 activity in tumor cells (me2BAF155 western blot); assay type: cell-based, human; settings: sub-micromolar levels
Procedure: BAF155 is a well-validated target of CARM1. […] Western blots were probed with Abs specific for di-methylated BAF155 protein (me2BAF155), total BAF155 protein and β-actin (loading control).
Whole cell extracts were prepared by lysis and sonication of cells in RIPA buffer [20 mM Tris-HCl (pH 7.5), 150 mM NaCl, 1 mM EDTA, 1 mM EGTA, 1% NP-40, 1% sodium deoxycholate, 2.5 mM sodium pyrophosphate, 1 mM β-glycerophosphate, 1 mM Na3VO4, 1 μg/ml leupeptin] supplemented with Halt Protease and Phosphatase Inhibitor Cocktail (ThermoFisher). Protein concentrations were determined using a Bradford Protein Assay (Bio-Rad). Protein samples (20 […]g) were resolved by SDS-PAGE using 4-12% NuPAGE Novex Bis-Tris mini gels (ThermoFisher) and transferred onto a PVDF membrane (Bio-Rad). Blots were blocked in 5% Blocker powder (Bio-Rad), 0.2% Tween in PBS and then incubated overnight with primary antibodies. Following incubation with secondary detection reagents and subsequent washing, blots were incubated in Western Lightening Plus-ECL substrate (PerkinElmer). Luminescence was captured using a ChemiDoc MP system (Bio-Rad Laboratories).

[3] = test system: B16F10-OVA-ZsGreen tumor cells; assay: T cell cytotoxicity assay, B16F10-OVA-ZsGreen tumor cells with OT-I CD8 T cells; assay type: cell-based, murine; settings: pre-treatment 0.1 μM for 24 hours
Source text: FIG. 3K illustrates that inactivation of Carm1 gene in tumor cells elicits tumor immunity, showing sensitization of tumor cells to T cells with a CARM1 inhibitor. […] Vehicle or inhibitor treated tumor cells were co-cultured with OT-I CD8 T cells at indicated E:T ratios (n=7-8 replicates/condition).
A Celigo image cytometer (Nexcelom) was used to study the killing of fluorescent tumor cells by CD8 T cells. Carm1-KO or control-KO B16-OVA-ZsGreen cells were washed with PBS, and 5,000 tumor cells were added per well in flat-bottom 96-well plates (8-10 replicates/group). OT-I CD8 T cells were added at different effector to target ratios. Following 24 or 48 hours of co-culture, the media was removed, and wells were washed with PBS to remove dead tumor cells and CD8 T cells. Live, adherent tumor cells were then counted using the Celigo image cytometer. As an alternative approach, apoptotic tumor cells were counted based on Caspase 3/7 activation. A Caspase-3/7 reagent (Essen Bioscience) was added directly to the culture media (0.5 μM final concentration) after 12, 24 or 48 hours of co-culture of tumor cells with T cells, and positive tumor cells were counted using the image cytometer.

[4] = test system: SKBR3, MDA-MB-157 and MDA-MB-436 cells; assay: RT-qPCR of ISGs in human tumor cells; assay type: cell-based; settings: 2 μM, 7 days
Procedure: RT-qPCR analysis of selected ISGs and IFNs in human SKBR3, MDA-MB-157 and MDA-MB-436 cells treated with vehicle or CARM1 inhibitor (2 μM) for 7 days (n=3/group).
Total RNA was extracted using the RNeasy Mini Kit (Qiagen) according to the manufacturer's protocol. Extracted RNA (1 μg) was transcribed into cDNA using SuperScript IV VILO master mix with ezDNase enzyme according to the manufacturer's protocol (ThermoFisher). The cDNA samples were diluted and used for real-time quantitative PCR (RT-qPCR). Taqman master mix (ThermoFisher) and gene-specific primers were used for PCR amplification and detection using a QuantStudio 6 Flex Real-Time PCR System (ThermoFisher). The RT-qPCR data were normalized to GAPDH and HPRT (housekeeping genes) and presented as fold change of gene expression in the test sample compared to the control sample.

CNC[C@@H](O)COc1ccc(Cl)c(-c2nc(-c3c(C)noc3C)c(C)c(N3CC4(CCN(C(=O)OC)CC4)C3)n2)c1 (stereo in doubt) [EZM2302]
γH2AX foci [1]: induced γH2AX foci accumulation
suppression of CARM1 activity in tumor cells [2]: suppress CARM1 activity
sensitization of tumor cells to CD8 T cells [3]: sensitized them to CD8 T cells
expression of ISGs in human breast and melanoma cancer cell lines [4]: induced the expression of a similar set of ISGs
